The values that follow come from patent publication US20090054392A1, “NAPHTHYLPYRIMIDINE, NAPHTHYLPYRAZINE AND NAPHTHYLPYRIDAZINE ANALOGS AND THEIR USE AS AGONISTS OF THE WNT-BETA-CATENIN CELLULAR MESSAGING SYSTEM” (Wyeth, priority 2007, published 2009).

The subject of this data set is Dkk1-LRP5-TCF-Luciferase. Nature of the data set: Functional Dkk1-LRP5-TCF-Luciferase Assay in U2OS Cells. Conditions: for A = MAX FOLD Induction/DMSO CONTROL: maximum fold induction over DMSO control; for fold induction at 2 µM: read-out: B = TCF ACTIVITY/DMSO CONTROL Fold induction @ 2.0 uM, 2.0 uM compound; for fold induction at 20 µM: read-out: C = TCF ACTIVITY/DMSO CONTROL Fold induction @ 20.0 uM, 20.0 uM compound.

pEC50: −log10 of the molar value. Like-named read-outs stand apart in the source and are kept apart here.

On to `N[C@@H]1[C@H]2CN(c3nccc(-c4ccc5ccccc5c4)n3)C[C@@H]12`, for which the pEC50 is 5.40 and the “A = MAX FOLD Induction/DMSO CONTROL” value is reported as 5.480 fold. In addition, the “B = TCF ACTIVITY/DMSO CONTROL Fold induction @ 2.0 uM” value (2.0 uM compound) is recorded as 1.920 fold.
As for `CCN(CC)C(=O)N(C)CCN(C)[C@@H]1CCN(c2nccc(-c3ccc4ccccc4c3)n2)C1` [1,1-diethyl-3-methyl-3-[2-(methyl{(3R)-1-[4-(2-naphthyl)pyrimidin-2-yl]pyrrolidin-3-yl}amino)ethyl]urea], the fold induction at 2 µM (Homo sapiens, U2OS) was 1.93.
Consider `COc1ccccc1-c1ccc2cc(-c3ccnc(N4CCC(CN)CC4)n3)ccc2c1` [1-(1-{4-[6-(2-methoxyphenyl)-2-naphthyl]pyrimidin-2-yl}piperidin-4-yl)methanamine], for which, where the note is “Homo sapiens, U2OS”, the fold induction at 2 µM stood at 1.88.
On to `NCC1CCN(c2nccc(-c3ccc4cc(-c5cccs5)ccc4c3)n2)CC1` [1-(1-{4-[6-(2-thienyl)-2-naphthyl]pyrimidin-2-yl}piperidin-4-yl)methanamine], for which, where the note is “Homo sapiens, U2OS”, the fold induction at 2 µM stood at 1.21 and the fold induction at 20 µM is 0.03.
`COc1ccc(-c2ccc3cc(-c4ccnc(N5CCC(CN)CC5)n4)ccc3c2)cc1` [1-(1-{4-[6-(4-methoxyphenyl)-2-naphthyl]pyrimidin-2-yl}piperidin-4-yl)methanamine]: for the setting “Homo sapiens, U2OS”, the fold induction at 20 µM was found to be 1.9.
Turning to `NCC1CCN(c2nccc(-c3ccc4cc(CN5CCOCC5)ccc4c3)n2)CC1` [1-(1-{4-[6-(morpholin-4-ylmethyl)-2-naphthyl]pyrimidin-2-yl}piperidin-4-yl)methanamine], for the setting “Homo sapiens, U2OS”, the fold induction at 2 µM amounted to 1.1.
Same read-out and setting: under `NCC1CCN(c2nccc(-c3ccc4cc(CN5CCCCC5)ccc4c3)n2)CC1` [1-(1-{4-[6-(piperidin-1-ylmethyl)-2-naphthyl]pyrimidin-2-yl}piperidin-4-yl)methanamine] stands 1.4.
Take `NCC1CCN(C(=O)c2nccc(-c3ccc4ccccc4c3)n2)CC1` [1-(1-{[4-(2-naphthyl)pyrimidin-2-yl]carbonyl}piperidin-4-yl)methanamine]: the “A = MAX FOLD Induction/DMSO CONTROL” value was 1.380 fold. Moreover, for the setting “Homo sapiens, U2OS”, the fold induction at 2 µM was 0.46 and the fold induction at 20 µM came to 1.42.
In the case of `NCC1CCN(Cc2nccc(-c3ccc4ccccc4c3)n2)CC1` [1-(1-{[4-(2-naphthyl)pyrimidin-2-yl]methyl}piperidin-4-yl)methanamine], for the setting “Homo sapiens, U2OS”, the fold induction at 2 µM is 1.41 and the fold induction at 20 µM stood at 1.77.
Take `CS(=O)(=O)N1CCCN(c2nccc(-c3ccc4ccccc4c3)n2)CC1` [1-(methylsulfonyl)-4-[4-(2-naphthyl)pyrimidin-2-yl]-1,4-diazepane]: the “A = MAX FOLD Induction/DMSO CONTROL” value was determined as 1.510 fold. For the same compound, under “Homo sapiens, U2OS”, the pEC50 is 5.25 and the fold induction at 20 µM was 1.59.
Regarding `NC[C@H]1CC[C@H](Oc2nccc(-c3ccc4ccccc4c3)n2)CC1` [1-(trans-4-{[4-(2-naphthyl)pyrimidin-2-yl]oxy}cyclohexyl)methanamine], where the note is “Homo sapiens, U2OS”, the pEC50 was 6.34.
With `c1ccc2cc(-c3ccnc(N4CCC(CN5CCCCCC5)CC4)n3)ccc2c1` [1-({1-[4-(2-naphthyl)pyrimidin-2-yl]piperidin-4-yl}methyl)azepane], under “Homo sapiens, U2OS”, the fold induction at 2 µM is 1.45.
For the compound `O=C1CCCCN1CC1CCN(c2nccc(-c3ccc4ccccc4c3)n2)CC1` [1-({1-[4-(2-naphthyl)pyrimidin-2-yl]piperidin-4-yl}methyl)piperidin-2-one], under “Homo sapiens, U2OS”, the fold induction at 2 µM was 1.55 and the fold induction at 20 µM is 0.73.
Taken in the same sequence, the figures for `O=C1CCCN1CC1CCN(c2nccc(-c3ccc4ccccc4c3)n2)CC1` [1-({1-[4-(2-naphthyl)pyrimidin-2-yl]piperidin-4-yl}methyl)pyrrolidin-2-one] were 1.33 and 0.81.
Regarding `c1ccc2cc(-c3ccnc(N4CCC(CN5CCCCCC5)C4)n3)ccc2c1` (centres unmarked) [1-({1-[4-(2-naphthyl)pyrimidin-2-yl]pyrrolidin-3-yl}methyl)azepane], the “A = MAX FOLD Induction/DMSO CONTROL” value worked out at 2.260 fold. Where the note is “Homo sapiens, U2OS”, the fold induction at 2 µM was 2.33.
Turning to `OC1CCN(CC2CCN(c3nccc(-c4ccc5ccccc5c4)n3)C2)CC1` (centres unmarked) [1-({1-[4-(2-naphthyl)pyrimidin-2-yl]pyrrolidin-3-yl}methyl)piperidin-4-ol], the “A = MAX FOLD Induction/DMSO CONTROL” value turned out to be 2.680 fold. Moreover, for the setting “Homo sapiens, U2OS”, the pEC50 was 5.26, the fold induction at 2 µM was determined as 3.52 and the fold induction at 20 µM was 0.1.
Regarding `O=C1CCCCN1C[C@@H]1CCN(c2nccc(-c3ccc4ccccc4c3)n2)C1` [1-({(3R)-1-[4-(2-naphthyl)pyrimidin-2-yl]pyrrolidin-3-yl}methyl)piperidin-2-one], where the note is “Homo sapiens, U2OS”, the pEC50 is 5.16, the fold induction at 2 µM came to 1.14 and the fold induction at 20 µM was determined as 2.33.
Turning to `O=C1CCCCN1C[C@H]1CCN(c2nccc(-c3ccc4ccccc4c3)n2)C1` [1-({(3S)-1-[4-(2-naphthyl)pyrimidin-2-yl]pyrrolidin-3-yl}methyl)piperidin-2-one], the “A = MAX FOLD Induction/DMSO CONTROL” value amounted to 2.000 fold. For the same compound, under “Homo sapiens, U2OS”, the fold induction at 2 µM is 1.07 and the fold induction at 20 µM is 2.45.
With `c1ccc2cc(-c3ccnc(N4CCCNCC4)n3)ccc2c1` [1-[4-(2-naphthyl)pyrimidin-2-yl]-1,4-diazepane], for the setting “Homo sapiens, U2OS”, the fold induction at 2 µM is 1.36 and the fold induction at 20 µM was 0.85.
For `O=[N+]([O-])CC1(O)CCN(c2nccc(-c3ccc4ccccc4c3)n2)CC1` [1-[4-(2-naphthyl)pyrimidin-2-yl]-4-(nitromethyl)piperidin-4-ol] the same measures were 1.19 and 1.49.
As for `O=C(N1CCCN(c2nccc(-c3ccc4ccccc4c3)n2)CC1)C(F)(F)F` [1-[4-(2-naphthyl)pyrimidin-2-yl]-4-(trifluoroacetyl)-1,4-diazepane], for the setting “Homo sapiens, U2OS”, the fold induction at 20 µM is 1.24.
For the compound `CCC(=O)N1CCCN(c2nccc(-c3ccc4ccccc4c3)n2)CC1` [1-[4-(2-naphthyl)pyrimidin-2-yl]-4-propionyl-1,4-diazepane], the “A = MAX FOLD Induction/DMSO CONTROL” value is 2.260 fold. For the same compound, where the note is “Homo sapiens, U2OS”, the pEC50 was 4.55 and the fold induction at 20 µM worked out at 2.23.
Consider `NC1CCCN(c2nccc(-c3ccc4ccccc4c3)n2)CC1` (centres unmarked) [1-[4-(2-naphthyl)pyrimidin-2-yl]azepan-4-amine], for which the fold induction at 2 µM (Homo sapiens, U2OS) came out at 1.95.
On the same count and under the same terms, under `c1ccc2cc(-c3ccnc(N4CCCCCC4)n3)ccc2c1` [1-[4-(2-naphthyl)pyrimidin-2-yl]azepane] stands 1.54.
`NC1CCN(c2nccc(-c3ccc4ccccc4c3)n2)CC1` [1-[4-(2-naphthyl)pyrimidin-2-yl]piperidin-4-amine]: the “A = MAX FOLD Induction/DMSO CONTROL” value is reported as 1.580 fold. Also, where the note is “Homo sapiens, U2OS”, the pEC50 was 6.01 and the fold induction at 2 µM turned out to be 2.11.
As to `OC1CCN(c2nccc(-c3ccc4ccccc4c3)n2)CC1` [1-[4-(2-naphthyl)pyrimidin-2-yl]piperidin-4-ol], the “A = MAX FOLD Induction/DMSO CONTROL” value is reported as 2.224 fold. Besides, under “Homo sapiens, U2OS”, the pEC50 is 5.89, the fold induction at 2 µM turned out to be 1.35 and the fold induction at 20 µM is 0.28.
In the case of `O=C1CCN(c2nccc(-c3ccc4ccccc4c3)n2)CC1` [1-[4-(2-naphthyl)pyrimidin-2-yl]piperidin-4-one], where the note is “Homo sapiens, U2OS”, the fold induction at 2 µM was determined as 1.43 and the fold induction at 20 µM was found to be 1.19.
Turning to `NC(=O)C1CCCN(c2nccc(-c3ccc4ccccc4c3)n2)C1` (centres unmarked) [1-[4-(2-naphthyl)pyrimidin-2-yl]piperidine-3-carboxamide], the “A = MAX FOLD Induction/DMSO CONTROL” value came out at 2.230 fold. Also, for the setting “Homo sapiens, U2OS”, the pEC50 was 5.90, the fold induction at 2 µM worked out at 2.17 and the fold induction at 20 µM stood at 2.7.
Consider `O=CC1CCN(c2nccc(-c3ccc4ccccc4c3)n2)CC1` [1-[4-(2-naphthyl)pyrimidin-2-yl]piperidine-4-carbaldehyde], for which, under “Homo sapiens, U2OS”, the fold induction at 2 µM amounted to 1.51 and the fold induction at 20 µM is 0.25.
Regarding `N#CC1CCN(c2nccc(-c3ccc4ccccc4c3)n2)CC1` [1-[4-(2-naphthyl)pyrimidin-2-yl]piperidine-4-carbonitrile], the “A = MAX FOLD Induction/DMSO CONTROL” value came to 5.015 fold. Besides, for the setting “Homo sapiens, U2OS”, the pEC50 was 5.97 and the fold induction at 2 µM stood at 2.79.
`NC(=S)C1CCN(c2nccc(-c3ccc4ccccc4c3)n2)CC1` [1-[4-(2-naphthyl)pyrimidin-2-yl]piperidine-4-carbothioamide]: the “A = MAX FOLD Induction/DMSO CONTROL” value was 2.070 fold. In addition, under “Homo sapiens, U2OS”, the fold induction at 2 µM turned out to be 1.74 and the fold induction at 20 µM worked out at 1.99.
For the compound `NC(=O)C1CCN(c2nccc(-c3ccc4ccccc4c3)n2)CC1` [1-[4-(2-naphthyl)pyrimidin-2-yl]piperidine-4-carboxamide], the “A = MAX FOLD Induction/DMSO CONTROL” value amounted to 1.660 fold. Also, under “Homo sapiens, U2OS”, the fold induction at 2 µM was 1.62 and the fold induction at 20 µM worked out at 1.15.
Take `O=C(O)C1CCN(c2nccc(-c3ccc4ccccc4c3)n2)CC1` [1-[4-(2-naphthyl)pyrimidin-2-yl]piperidine-4-carboxylic acid]: under “Homo sapiens, U2OS”, the fold induction at 2 µM worked out at 1.78 and the fold induction at 20 µM is 0.57.
Take `Cc1ccc(S(=O)(=O)N2CCCN(c3nccc(-c4ccc5ccccc5c4)n3)CC2)cc1` [1-[(4-methylphenyl)sulfonyl]-4-[4-(2-naphthyl)pyrimidin-2-yl]-1,4-diazepane]: the fold induction at 2 µM (Homo sapiens, U2OS) was 1.76.
On the same count and under the same terms, the value for `NC[C@H]1CC[C@H](c2nccc(-c3ccc4ccccc4c3)n2)CC1` [1-[trans-4-(4-naphthalen-2-ylpyrimidin-2-yl)cyclohexyl]methanamine] was 3.5.
`CC(=O)N1CCCN(c2nccc(-c3ccc4ccccc4c3)n2)CC1` [1-acetyl-4-[4-(2-naphthyl)pyrimidin-2-yl]-1,4-diazepane]: the “A = MAX FOLD Induction/DMSO CONTROL” value came out at 1.757 fold. Also, where the note is “Homo sapiens, U2OS”, the pEC50 was 5.14, the fold induction at 2 µM was found to be 1.46 and the fold induction at 20 µM was 3.21.
Take `O=C(c1ccccc1)N1CCCN(c2nccc(-c3ccc4ccccc4c3)n2)CC1` [1-benzoyl-4-[4-(2-naphthyl)pyrimidin-2-yl]-1,4-diazepane]: for the setting “Homo sapiens, U2OS”, the fold induction at 2 µM is 1.06 and the fold induction at 20 µM was determined as 0.35.
